One test has as its target GSK3β (Homo sapiens, UniProt P49841). The test is described as follows: Kinase profiling (Millipore), GSK3β. The test is classed as biochemical. As to the method: (§1) The in vitro kinase assays for testing against Cdk4-cyclin D1, Cdk2-cyclin A, Cdk1-cyclin B1 and Cdk9-cyclin T1 were performed in-house. The methodology and results have been reported previously.[20], [30], [31], [32], [45] The kinase profiling for 58 representative kinases was carrried out commercially at Millipore Bioscience Division, Livingston, UK.

Test [1] relates to BNL SV A.8 (SV40-mediated transformed mouse embryonic hepatic cell line). The test is described as follows: Long-term cell survival assay, BNL SV A.8. It is filed as cell-based. As to conditions: BNL SV A.8, 12 days. As to the method:
Fig. S3: Long term survival of Mouse embryonic normal hepatic cell line (BNL CL2) and SV40 mediated transformed mouse embryonic hepatic cell line (BNL SV A.8) after the treatment with BPT. The cells were treated with the diffrent concentrations of BPT and then incubated in drug free medium for 12 days. the colonies were fixed in methanol : acetic acid (2: 1) and stained with 1% crystal violet and representative plates were scanned using the gel documentation system .

Test [2] deals with NCI-H460 (NSCLC; p53+, pRb+). The test is described as follows: Cell proliferation (MTT) assay, NCI-H460. It is filed as cell-based. As to conditions: Homo sapiens, 48 h, read-out: IC50 cell growth inhibition, NCI-H460. As to the method: (§2) All 10 human cancer cell lines were maintained at 37 °C in 5% CO2 in RPMI-1640 medium, supplemented with 10% foetal calf serum and 100 μg/ml normocin. The 10 cancer cell lines used for screening were all obtained from ATCC (Manassas, VA, USA); they were the NSCLC (a form of cancer that is resistant to chemotherapy) lines: NCI-H460 (pRb^+, p53^+), A549 (pRb^+, p53^+), Calu-1 (pRb^+, p53-null), NCI-H1299 (pRb^+, p53-null), NCI-H358 (pRb-null, p53-null); the colon cancer line LS174T (pRb^+, p53^+); the prostate cancer line PC-3 (pRb^+, p53-null); the pancreatic cancer line MiaPaca (pRb^+, p53-mutant). The genotypes within brackets indicate the status of the tumour suppressor proteins pRb and p53. The mouse embryonic normal hepatic cell line (BNL CL2) and its SV40 large T-antigen-transformed counterpart cell line (BNL SV A.8) were also purchased from ATCC. The large T-antigen inactivates the tumour suppressor proteins p53 and pRb. The detailed procedure of cell proliferation (MTT) assay and IC50 determination was described previously.[32]

Test [3] relates to Calu-1 (NSCLC; p53 null, pRb+). The test is described as follows: Cell proliferation (MTT) assay, Calu-1. The test is classed as cell-based, human. On the procedure:
as §2

For the next test, the system named is pBluescript plasmid DNA. Kind of test: Topoisomerase I catalysed DNA relaxation or unwinding assay. The test is classed as biochemical. As to the method: For assay, 5 nM supercoiled pBluescript d-s plasmid DNA and 10 U of topoisomerase-I active enzyme were used in each reaction well. To ensure that the assay determines the DNA-intercalating property of compounds and not topoisomerase I inhibition, in a parallel experiment relaxed plasmid DNA was first prepared by treating with topo I enzyme for 30 min and then used as an initial substrate for the assay. DNA relaxation assays were performed in the presence or absence of compounds in 40 μl of DNA unwinding assay buffer. After 30 min incubation at 37 °C, reaction mixtures were treated with 3 μl of 250 mM EDTA and extracted with phenol/chloroform. The DNA was dissolved in tris-EDTA buffer, pH 8.0. The samples (20 μl) were treated with 2 μl of 2.5% SDS, mixed with 2.5 μl agarose gel loading buffer (10x) and subjected to electrophoresis on a 0.8% agarose gel without EtBr (separating the DNA in the presence of EtBr would convert the relaxed DNA into the supercoiled form). After the electrophoretic separation, DNA bands were stained with 1 μg/ml EtBr and visualized using a UV illuminator. The compounds were compared with fascaplysin, which is a known DNA-intercalating molecule. Camptothecin, which is a known topoisomerase- I inhibitor, was used to test the activity and inhibition of enzyme.

For test [4], the system named is BNL SV A.8 (mouse hepatic; SV40-mediated transformed cells). The test is described as follows: Cell proliferation (MTT) assay, BNL SV A.8. It is filed as cell-based. On the procedure: as §2
Test [5] has as its system panel of 58 representative kinases. Kind of test: Kinase profiling, panel of 58 representative kinases. The test is classed as biochemical. To be noted: at 10 μM. As to the method:
as §1

The next test has as its system MIAPaCa cells. Kind of test: Western blot of cell cycle proteins in mutant p53 cells. It is filed as cell-based, human. As to conditions: data not shown. As to the method:
A549, LS174T and MiaPaCa cells were seeded in 25 cm^2 tissue culture flasks in the complete growth medium. […] Cells were harvested by trypsinization, washed in ice-cold PBS and then lysed in buffer (Sigma-Aldrich; cat. no. C-2978) containing protease inhibitor cocktail (Sigma-Aldrich; cat. no. P8340). The lysates were centrifuged at 14 000 r.p.m. (revolutions per minute) for 10 min at 4 °C and the total protein concentrations were estimated in the clear supernatants using the Bradford method. Equal amounts of protein (40 μg) were loaded and electrophoresed on 10% SDS-polyacrylamide gels and blotted on Immobilon-P Transfer Membrane (Millipore; cat. no.IPVH20200). The blots were probed with respective primary antibodies (at 4 °C, overnight) at the following dilutions: cdc2 (New England Biolabs, Hitchin, UK; cat. no. 9110) at 1 : 1000 to detect Cdk1; cyclin B1 (CRUK, London, UK; cat. no. V152) at 1 : 1500 dilution to detect cyclin B1; Pab 1801 (Santa Cruz Biotechnology, Heidelberg, Germany; cat. no. sc-98) at 1 : 500 dilution to detect p53; N-20 (Santa Cruz Biotechnology; cat. no. sc-469) at 1 : 500 dilution to detect p21; C-19 (Santa Cruz Biotechnology; cat. no. sc-528) at 1 : 250 dilution to detect p27; AC-40 (Sigma-Aldrich; cat. no. A4700) at 1 : 2000 dilution to detect actin. […]
Background: Immunoblotting shows a protein as a band on a membrane.

Where [6] appears, read: BNL SV A.8, concentration used in long-term survival assay (Fig. S3).

pIC50: −log10 of the molar value. “Also recorded” adds a separate entry of the source. Like-named read-outs stand apart in the source and are kept apart here.

Chain of GSK3β (P49841 whole entry): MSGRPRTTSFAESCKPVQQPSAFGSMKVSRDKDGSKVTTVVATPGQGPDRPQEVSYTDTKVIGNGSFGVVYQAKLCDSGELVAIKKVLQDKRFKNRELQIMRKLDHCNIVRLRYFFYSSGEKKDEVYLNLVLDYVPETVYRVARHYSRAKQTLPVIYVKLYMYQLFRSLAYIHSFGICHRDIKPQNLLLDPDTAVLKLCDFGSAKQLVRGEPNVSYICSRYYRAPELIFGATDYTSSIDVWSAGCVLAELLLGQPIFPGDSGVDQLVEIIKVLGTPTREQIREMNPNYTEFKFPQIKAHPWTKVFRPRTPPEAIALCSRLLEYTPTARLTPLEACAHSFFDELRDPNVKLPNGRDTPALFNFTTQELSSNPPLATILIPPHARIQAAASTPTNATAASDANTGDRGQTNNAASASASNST

Take `O=C(c1ccccc1-c1ccccc1)N1CCc2c([nH]c3ccccc23)C1` [BPT, 2-(biphenyl-2-carbonyl)-2,3,4,9-tetrahydro-1H-pyrido[3,4-b]indole]: the pIC50 (as a rule, the IC50 on a negative log10 scale, so that one unit is a factor of ten) was under 5.00 on GSK3β; 6.22 in test [2]; 5.55 in test [3] (Homo sapiens, Calu-1, 48 h, MTT, read-out: IC50 cell growth inhibition, Calu-1); 6.12 in test [4] (Mus musculus, 48 h, MTT, read-out: IC50 cell growth inhibition, BNL SV A.8); 6.22 in test [4] (Mus musculus, BNL SV A.8, concentration used in long-term survival assay (Fig. S3), read-out: IC50). For the same compound, in test [1], the “number of colonies, long-term survival” value is “selectively reduces the number of colonies”. Moreover, the “resistance of Calu-1 cells to growth inhibition” value in test [3] (relative to other cell lines) is reported as “two- to three-fold”. For the same compound, the “state of relaxed (negatively supercoiled) plasmid DNA after treatment” value in the test on pBluescript plasmid DNA (relaxed pBluescript DNA as substrate, BPT up to 100 μM, fascaplysin 1 μM) is “remained relaxed”. The “hindrance of topoisomerase-I catalysed DNA relaxation” value in the test with pBluescript plasmid DNA (supercoiled pBluescript DNA, fascaplysin 10 and 1 µM, BPT 10 and 100 µM) is on record as “does not hinder DNA relaxation process; also recorded: does not intercalate”. In test [4] (setting [6]), the 30% effect concentration (IC30) (usually the concentration needed for an effect of 30%) came out at 400 nM. The IC70 – broadly, the concentration at which the effect reaches the 70% level – in test [4] (setting [6]) was 900 nM. For the same compound, the 20% effect level in test [4] (Mus musculus, BNL SV A.8, concentration used in long-term survival assay (Fig. S3)) (IC20) was put at 250 nM. Also, the “inhibition of other kinases (panel of 58)” value in test [5] is on record as “no inhibition against other kinases; also recorded: does not inhibit any kinase to any appreciable degree”. Moreover, in the test with MIAPaCa cells, the “cyclin B1 and Cdk1 levels” value is given as “elevated”. For the same compound, the “p53, p21 and p27 levels” value in the test on MIAPaCa cells is listed as “remained unchanged”.

The record behind these values is publication PMC4669722, “Antitumour potential of BPT: a dual inhibitor of cdk4 and tubulin polymerization” (Cell Death & Disease, 2015).
